Measured values taken from patent US12091426B2, “Bifunctional degraders of hematopoietic progenitor kinase and therapeutic uses thereof” (Nurix Therapeutics, Inc., priority 2021, dated 2024).

Target: T1, HPK1 (Homo sapiens, UniProt Q92918)
T1 construct: A HiBiT tag was introduced by CRISPR on the N terminus of HPK1 in Jurkat cells; host or cells: Jurkat cells (ATCC TIB-152), monoclonal line with CRISPR knock-in of HiBiT at the endogenous HPK1 locus
Assay: HPK1 Cellular HiBit Degradation Assay
Assay type: cell-based
Conditions: HiBiT HPK1 Jurkat cells, 24 hrs; for DC50: concentration at which 50% of HPK1 was remaining, read-out: DC50 Category; for Dmax: Jurkat, maximum degradation vs DMSO vehicle control, read-out: Dmax Category
Summary of the method: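 HPK1 levels are read by HiBiT luminescence after 24 h exposure of HiBiT-knock-in Jurkat cells to compound at 10 uM–0.1 nM final (11 points). Relative to DMSO (100%), DC50 is the concentration leaving 50% HPK1 from a variable-slope fit, and Dmax is 100 minus minimum remaining. Viability checked in-plate.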

T1 sequence (Q92918 whole entry): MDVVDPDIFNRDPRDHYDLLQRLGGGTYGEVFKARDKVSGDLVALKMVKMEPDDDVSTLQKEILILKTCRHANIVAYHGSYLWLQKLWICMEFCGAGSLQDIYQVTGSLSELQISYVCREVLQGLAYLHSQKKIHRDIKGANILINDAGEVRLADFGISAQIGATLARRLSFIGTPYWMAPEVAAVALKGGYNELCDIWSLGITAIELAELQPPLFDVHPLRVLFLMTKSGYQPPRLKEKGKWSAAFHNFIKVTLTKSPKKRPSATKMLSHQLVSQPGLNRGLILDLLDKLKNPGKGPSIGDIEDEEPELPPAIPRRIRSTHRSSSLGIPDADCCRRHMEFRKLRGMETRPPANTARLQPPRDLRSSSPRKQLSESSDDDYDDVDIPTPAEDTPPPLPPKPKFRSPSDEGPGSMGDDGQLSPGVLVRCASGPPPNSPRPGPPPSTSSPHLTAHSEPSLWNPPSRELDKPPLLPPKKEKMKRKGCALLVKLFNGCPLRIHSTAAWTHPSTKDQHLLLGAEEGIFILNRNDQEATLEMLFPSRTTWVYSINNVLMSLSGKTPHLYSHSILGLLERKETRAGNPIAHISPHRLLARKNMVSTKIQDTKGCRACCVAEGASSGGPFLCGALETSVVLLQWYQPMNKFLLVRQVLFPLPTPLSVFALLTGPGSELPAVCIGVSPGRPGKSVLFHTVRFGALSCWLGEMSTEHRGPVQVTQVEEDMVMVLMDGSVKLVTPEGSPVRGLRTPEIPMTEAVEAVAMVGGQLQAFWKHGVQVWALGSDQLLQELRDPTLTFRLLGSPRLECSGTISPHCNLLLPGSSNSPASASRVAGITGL

| Structure (SMILES) | DC50 [nM] | Dmax [%] |
| --- | --- | --- |
| CC(C)n1cnc2cc(-c3ccc4c(c3)N([C@H]3C[C@@H](N5CCC[C@H](F)C5)C3)C(=O)C43CCN(C(=O)C4(C)CCN(C(=O)C5CCN(c6ccc(C7CCC(=O)NC7=O)cn6)CC5)CC4)CC3)nc(NC3CC3)c21 (mixture of isomers) [Example 203, (3RS)-3-(6-{4-[4-({6-[4-(cyclopropylamino)-3-(propan-2-yl)-3H-imidazo[4,5-c]pyridin-6-yl]-2-oxo-1-[(1S,3S)-3-[(3S)-3-fluoropiperidin-1-yl]cyclobutyl]-1,2-dihydrospiro[indole-3,4′-piperidin]-1′-yl}carbonyl)-4-methylpiperidine-1-carbonyl]piperidin-1-yl}pyridin-3-yl)piperidine-2,6-dione] | < 100 | 70 to 85 |
| CC(C)n1cnc2cc(-c3ccc4c(c3)N([C@H]3C[C@@H](N5CCCCC5)C3)C(=O)C43CCN(C(=O)C4CCN(S(=O)(=O)C5CCN(c6ccc(C7CCC(=O)NC7=O)cn6)CC5)CC4)CC3)nc(NC3CC3)c21 (mixture of isomers) [Example 160, (3RS)-3-[6-(4-{[4-({6-[4-(cyclopropylamino)-3-(propan-2-yl)-3H-imidazo[4,5-c]pyridin-6-yl]-2-oxo-1-[(1S,3S)-3-(piperidin-1-yl)cyclobutyl]-1,2-dihydrospiro[indole-3,4′-piperidin]-1′-yl}carbonyl)piperidin-1-yl]sulfonyl}piperidin-1-yl)pyridin-3-yl]piperidine-2,6-dione] | < 100 | > 85 |
| CC(C)n1cnc2cc(-c3ccc4c(c3)N([C@H]3C[C@@H](N5CCCCC5)C3)C(=O)C43CCN(C(=O)[C@@H]4CCN(C(=O)[C@H]5CC[C@H](Nc6ccc(C7CCC(=O)NC7=O)cc6)CC5)C4)CC3)nc(Nc3ccccc3F)c21 (mixture of isomers) [Example 3, (3RS)-3-(4-{[(1R,4R)-4-[(3R)-3-[(6-{4-[(2-fluorophenyl)amino]-3-(propan-2-yl)-3H-imidazo[4,5-c]pyridin-6-yl}-2-oxo-1-[(1S,3S)-3-(piperidin-1-yl)cyclobutyl]-1,2-dihydrospiro[indole-3,4′-piperidin]-1′-yl)carbonyl]pyrrolidine-1-carbonyl]cyclohexyl]amino}phenyl)piperidine-2,6-dione] | < 100 | > 85 |
| CC(C)n1cnc2cc(-c3ccc4c(c3)N([C@H]3C[C@@H](N5CCCCC5)C3)C(=O)C43CCN(C(=O)C4CCC5(CCN(C(=O)C6CCN(c7ccc(C8CCC(=O)NC8=O)cn7)CC6)CC5)C4)CC3)nc(NC3CC3)c21 (mixture of isomers) [Example 294, (3RS)-3-(6-{4-[2-({6-[4-(cyclopropylamino)-3-(propan-2-yl)-3H-imidazo[4,5-c]pyridin-6-yl]-2-oxo-1-[(1S,3S)-3-(piperidin-1-yl)cyclobutyl]-1,2-dihydrospiro[indole-3,4′-piperidin]-1′-yl}carbonyl)-8-azaspiro[4.5]decane-8-carbonyl]piperidin-1-yl}pyridin-3-yl)piperidine-2,6-dione] | 100 to 500 | 70 to 85 |
| CC(C)n1cnc2cc(-c3ccc4c(c3)N([C@H]3C[C@@H](N5CCCCC5)C3)C(=O)C43CCN(C(=O)C[C@H]4CCCN(C(=O)CC5CCN(c6ccc(C7CCC(=O)NC7=O)cn6)CC5)C4)CC3)nc(NC3CC3)c21 (mixture of isomers) [Example 297, (3RS)-3-[6-(4-{2-[(3R)-3-(2-{6-[4-(cyclopropylamino)-3-(propan-2-yl)-3H-imidazo[4,5-c]pyridin-6-yl]-2-oxo-1-[(1S,3S)-3-(piperidin-1-yl)cyclobutyl]-1,2-dihydrospiro[indole-3,4′-piperidin]-1′-yl}-2-oxoethyl)piperidin-1-yl]-2-oxoethyl}piperidin-1-yl)pyridin-3-yl]piperidine-2,6-dione] | 500 to 1000 | 50 to 70 |
